The values below come from patent US20220387358A1, “CERAMIDE ANALOG SACLAC MODULATES SPHINGOLIPID LEVELS AND MCL-1 SPLICING TO INDUCE APOPTOSIS IN ACUTE MYELOID LEUKEMIA” (University of Virginia Patent Foundation, priority 2019, published 2022).

“Also recorded” adds a separate entry of the source.

Data set [1] has as its system primary AML patient samples. Kind of data set: Colony forming assay. Format: cell-based, human. The conditions noted are these: six primary patient samples. On the procedure: Cryopreserved human AML patient samples were thawed and washed twice with RPMI 1640 supplemented with 2% heat inactivated fetal bovine serum (FBS). After washes, cells were cultured in triplicate in 12-well plates at a density of 0.1 to 2×10^5 cells per well in Human Methylcellulose Complete Media (#HSC003R&D Systems, Minneapolis, Minnesota, United States of America). Plating densities were selected for each case to yield colony outgrowth of 20-100 colonies per well. The desired cell number and dose of SACLAC or DMSO was added to the culture media and dispensed to multi-well plates. Colonies were propagated for 10-14 days and blast colonies (>20 cells) were counted in a blinded manner under the light microscope.

Data set [2] concerns OCI-AML2 cells. As to the kind of experiment: Apoptosis by flow cytometry (Annexin V). The data set is classed as cell-based, human. The conditions noted are these: SACLAC 5 μM. How it is done:
Apoptosis in cell lines was assessed after treating 2.5×10^5 cells per ml with drug or vehicle in a 48-well plate for the indicated time points and doses. Primary human AML cells were pre-incubated with SFEM for 48 hours before plating 2×10^5 cells in 24-well plates for the indicated times point and doses. Samples were stained using the Muse Annexin V & Dead Cell Kit (Millipore #MCH100105). Change in mitochondrial membrane potential in cell lines was measured with the Muse® MitoPotential Kit (#MCH100110, MilliporeSigma, Burlington, Mass., United States of America). Caspase activation was measured using the Muse® Caspase 3/7 Assay Kit (#MCH100108, MilliporeSigma, Burlington, Mass., United States of America). For rescue experiments, cells were plated at 2.5×10^4 well in a 96-well plate 24 hours after electroporation. Cells were treated with DMSO or SACLAC for 48 hours and apoptosis was detected as stated above. All kits were used according to manufacturer's protocol. Cells were then analyzed using the Muse® Cell Analyzer (MilliporeSigma, Burlington, Massachusetts, United States of America) (35,36). Experiments included positive and negative controls for proper analysis.

Data set [3] relates to OCI-AML2 cells. As to the kind of experiment: Western blot of SF3B1, Mcl-1S and Mcl-1L protein expression. Format: cell-based, human. The settings on record: 24 hours. How it is done:
Cells were plated at 2.5×10^5 cells per ml in 6-well plates and treated with drug, vehicle or siRNA at the indicated doses and time points. Cells were harvested, washed with PBS and lysed prior to preparation of protein extracts for western blotting.
More particularly, cells were lysed with RIPA buffer (#R0278, Sigma, St. Louis, Mo., United States of America) containing phosphatase inhibitor cocktails 2 and 3 (Sigma #P5726, #P0044) and protease inhibitor cocktail (#P8340, Sigma, St. Louis, Mo., United States of America). Protein was quantified using a bicinchoninic acid (BCA) protein assay kit (#23225, Pierce, Waltham, Mass., United States of America). Samples were resolved on a Bolt 4-12% SDS-PAGE gel (#NW00082, ThermoFisher Scientific, Waltham, Mass., United States of America) and transferred to PVDF membrane (#170-4274, Bio-Rad Laboratories, Hercules, Calif., United States of America). Antibodies were obtained from Cell Signaling Technology (Danvers, Mass., United States of America) unless indicated otherwise. Primary antibodies used were: Mcl-1 (#5453, RRID #AB 10694494), SF3B1 (#14434, RRID #AB 2798479), β-actin (#3700, RRID #AB_2242334) and AC (BD Biosciences #612302 (San Jose, California, United States of America), RRID #AB_399617). Secondary antibodies used were HRP-linked goat anti-mouse (#7076, RRID #AB_330924) or goat anti-rabbit IgG (#7074, RRID # AB_2099233). Clarity Max Western ECL Substrate (#1705062, Bio-Rad Laboratories, Hercules, Calif., United States of America) was added to visualize relative protein expression by chemiluminescence using the Bio-Rad ChemiDoc MP imaging system (Bio-Rad Laboratories, Hercules, Calif., United States of America). Quantification was done using Bio-Rad ImageLab 6.0.1 software (Bio-Rad Laboratories, Hercules, Calif., United States of America). For quantification, bands were normalized to β-actin as a loading control.

For the next data set, the system named is human MV4-11 AML cells. As to the kind of experiment: MV4-11 AML xenograft model in NSG mice. Format: in vivo. How it is done:
MV4-11 AML cells expressing luciferase (luc2) and YFP (39) or U937 AML cells expressing luc2 and tdTomato (#72486, Addgene, Watertown, Mass., United States of America) were used to investigate the efficacy of SACLAC in NOD-scid […] (NSG) mice (Jackson Laboratories, Bar Harbor, Me., United States of America). Maximum tolerated dose and pharmacokinetic studies were also performed to determine safety and delivery of compound.
To assess the efficacy of SACLAC in a transplantable human AML model, two cell line models were used. For the MV4-11 model, 2.5×10^6 luciferase and yellow fluorescent protein (YFP)-expressing MV4-11 cells in HBSS were introduced into 6- to 8-week-old female NSG mice via tail-vein injections. After 10-12 days, engraftment was confirmed using bioluminescence imaging with the IVIS Lumina LT Series III imaging system (PerkinElmer Inc., Waltham, Mass., United States of America). Mice were equally randomized into two groups of three mice and treated with vehicle or SACLAC at 5 mg/kg/day five times per week for 18 total injections. At the end of the treatment, animals were euthanized and peripheral blood was collected for flow cytometry analysis.
Red blood cells (RBC) were lysed with RBC Lysis Buffer (#420301, BioLegend, San Diego, Calif., United States of America) followed by cell surface staining with anti-human CD45 antibodies (#304014, clone HI30, BioLegend, San Diego, Calif., United States of America) and 7AAD (#420404, BioLegend, San Diego, Calif., United States of America) to detect viable human white blood cells (WBC) using an LSR II flow cytometer and BD FACS Diva software. Viable cells were identified by gating on 7AAD-negative cells gated from singlets (SSC-A and FSC-W scales), after excluding the debris (SSC-A and FSC-A scales). Percentage of YFP, tdTomato or hCD45 positive cells was determined in FlowJo software (Becton Dickinson, Franklin Lakes, N.J., United States of America). All animal studies were performed with IACUC approval.

With `CCCCCCCCCCCCCCC[C@@H](O)[C@H](CO)NC(=O)CCl` [SACLAC, N-[(2S,3R)-1,3-dihydroxyoctadecan-2-yl]2-chloroacetamide], in data set [1] (5 μM), the “colony formation decreased (average)” value is 32%. Moreover, the “colony formation decreased (average)” value in data set [1] (20 μM) is reported as 69%. Besides, the apoptosis in the data set with OCI-AML2 cells [2] (12 hours) is reported as 79%. Besides, the apoptosis entry in the data set on OCI-AML2 cells [2] (24 hours) is reported as “nearly all cells undergoing apoptosis”. Besides, in the data set on OCI-AML2 cells [3] (SACLAC), the SF3B1 protein expression result is “reduced” and the “splicing factor SRSF1” value is on record as “not affected”. In the data set on OCI-AML2 cells [3] (increasing doses of SACLAC), the “increase in the ratio of Mcl-1S to Mcl-1L” value is given as 3 fold and the “upregulation of the Mcl-1S isoform” value amounted to 10 fold. Further, in the data set with human MV4-11 AML cells (5 mg/kg i.v. in β-HPCD), the “toxicity in treated animals” value is reported as “No overt toxicity; also recorded: non-toxic”. In the data set on human MV4-11 AML cells (5 mg/kg i.v. in β-HPCD, course of the study), the “body weight of treated animals” value is “weight gain; also recorded: did not lose weight”. The “decrease in leukemic burden (circulating leukemic cells in blood)” value with human MV4-11 AML cells (5 mg/kg tail-vein, five times per week, 18 injections) is listed as approximately 75%.
